This is an account of results in patent publication US9815863B2, “Hydrogen bond forming fluoro ketolides for treating diseases” (priority 2010, dated 2017).

In brackets after ≈: the same amount, converted by molar mass.

The target in one test is S. aureus 70S ribosomes. Kind of test: Saturation (direct) binding of radiolabeled drug to S. aureus wild-type ribosomes, spin-column. The method, then: Ribosomes were prepared from E. coli, strain MRE 600, S. aureus strain ATCC 29212, or S. aureus strain N315 by standard protocols (Spedding™, G. 1990. Isolation and analysis of ribosomes from prokaryotes, eukaryotes, and organelles, p. 1-29. In G. Spedding (ed.), Ribosomes and protein synthesis, a practical approach. Oxford University Press, Oxford, United Kingdom; Adams, P. D., P. V. Afonine, G. Bunkoczi, V. B. Chen, I. W. Davis, N. Echols, J. J. Headd, L. W. Hung, G. J. Kapral, R. W. Grosse-Kunstleve, A. J. McCoy, N. W. Moriarty, R. Oeffner, R. J. Read, D. C. Richardson, J. S. Richardson, T. C. Terwilliger, and P. H. Zwart. 2010. PHENIX: a comprehensive Python-based system for macromolecular structure solution. Acta Crystallogr. D. Biol. Crystallogr. 66:213-221).
Competition binding studies. […]
Direct antibiotic binding experiments were done by incubating ribosomes at a 100 nM concentration with varying concentrations of radiolabeled drug in a total volume of 160 μL in buffer A (20 mM Tris-HCl [pH 7.5], 10 mM MgCl2, 150 mM NH4Cl, 6 mM 2-mercaptoethanol) at 37° C. for 15 min, then at 20° C. for 10 min. […] Radioactivity was measured in a scintillation counter and used to calculate the amount of the radiolabeled drug bound to ribosomes.

Test [1] relates to bacterial protein synthesis (E. coli S30 extract). Description: E. coli cell-free transcription-translation (TnT) S30 system, firefly luciferase synthesis. The conditions noted are these: read-out: IC50 of inhibition of firefly luciferase synthesis, ribosomes 600 nM.
In test [2] the test system is S. aureus ribosomes (23S rRNA). Kind of test: RNA footprinting (ribosome chemical probing), wild-type S. aureus ribosomes. Format: binding. The conditions noted are these: 100 μM antibiotic. The protocol: (§1) Ribosome chemical probing. rRNA probing was done following standard protocols (Merryman, C., and H. F. Noller. 1998. Footprinting and modification-interference analysis of binding sites on RNA, p. 237-253. In C. W. J. Smith (ed.), RNA:Protein Interactions, A Practical Approach. Oxford University Press, Oxford), with minor modifications. Briefly, 200 nM ribosomes were incubated with 100 μM antibiotic in 50 μL of buffer B (80 mM HEPES-KOH [pH 7.8], 20 mM MgCl2, 100 mM NH4Cl, 1.5 mM dithiothreitol) for 10 min at 37° C., followed by 10 min at 20° C. Modifying reagents (dimethyl sulfate [DMS], kethoxal, or 1-cyclohexyl-3-(2-morpholinoethyl)carbodiimide metho p-toluene sulfonate [CMCT]) were added and the modification reaction was carried out for 10 min at 37° C. After quenching the reaction and ethanol precipitation, rRNA was extracted and the distribution of modified nucleotides was assessed by primer extension.
(§2) Interactions of CEM-101 with wild-type E. coli and S. aureus ribosomes in solution. […] 1987. Chloramphenicol, erythromycin, carbomycin and vernamycin B protect overlapping sites in the peptidyl transferase region of 23S ribosomal RNA. Biochimie 69:879-884). Also included in this study was a C3-cladinose cousin of CEM-101, CEM-103, which lacks the C2-linked fluorine atom.

Test [3] deals with E. coli ribosomes (23S rRNA). Kind of test: RNA footprinting (ribosome chemical probing), wild-type E. coli ribosomes. Format: binding. The conditions noted are these: 100 μM antibiotic. The protocol: as §1, §2
Test [4] deals with Streptococcus pneumoniae Pen^R, Tel^1/^R, Mac^R. Kind of test: MIC against streptococci clinical isolates (Table 3). Format: cell-based. The conditions noted are these: Streptococcus pneumoniae, S. pneumoniae Pen^R, 12 strains, constitutive ermB.

Turning to `CC[C@H]1OC(=O)[C@@](C)(F)C(=O)[C@H](C)[C@@H](O[C@@H]2O[C@H](C)C[C@H](N(C)C)[C@H]2O)[C@](C)(OC)C[C@@H](C)C(=O)[C@H](C)[C@H]2N(CCCCn3cc(-c4cccc(N)c4)nn3)C(=O)O[C@]12C` [CEM-101], the Kd (commonly the constant that tells how readily two partners part at equilibrium) at S. aureus 70S ribosomes was 0.05 ± 0.013 µM. The IC50 (commonly the concentration needed to halve the response being measured) in test [1] is 1.1 µM. Further, the “Protection of A752 from DMS modification” value in test [2] (S. aureus ribosomes) and in test [3] (E. coli ribosomes) was “strongly protects” in each case. Further, the “Protection of A2058 and A2059 in domain V of 23S rRNA from modification with DMS” value in test [2] (S. aureus wild-type ribosomes) and in test [3] (E. coli wild-type ribosomes) was “protect” in each case. In test [4] (read-out: MIC50), the MIC50 (in general, an inhibitory concentration at the 50% level, which refers to growth in some studies and to a panel of isolates in others) turned out to be 0.5 µg/mL (≈ 0.592 µM). Moreover, the MIC90 – broadly, the lowest concentration that inhibits either 90% of growth or 90% of the strains tested, depending on the study – in test [4] (read-out: MIC90) turned out to be 0.5 µg/mL (≈ 0.592 µM).
